Several values for one entry are separate records, joined by “and”; a condition that tells them apart may be missing. Equal values may be shown once. Read-outs that look alike come from different tables or passages of the source.
Columns and labels:
mouse Abcg2 = tested on: T1, mouse Abcg2; experiment: Transepithelial transport, MDCK-II cells transduced with mAbcg2; format: in vitro ADME; settings: MDCK-II mAbcg2, 5 µM, read-out: efflux transport ratio r
T1 construct: expressed in transfected cells; host or cells: MDCK-II cells stably transduced with mAbcg2 cDNA (made in the authors' institute)
Excerpt: Polarized Madin-Darby Canine Kidney (MDCK-II) cells (ECACC 00062107) stably transduced with either human (h) ABCB1, hABCG2 or mouse (m) Abcg2 cDNA were generated in our institute between 1995–2005. The proper identity and functionality, such as highly characteristic growth and drug transporter properties, including inhibitor sensitivity, were regularly checked in these epithelial cells. Mycoplasma routinely tested negative in these cells. The passage number was 10–15 when used in the transport experiments.
Transepithelial transport experiments were performed as previously described with 12-well plates (Transwell 3414, Corning Inc., Kennebunk, ME, USA) containing microporous polycarbonate membrane filters (3.0 µm pore size, 12 mm diameter). […]
After pre-incubation with 5 µM zosuquidar (ABCB1 inhibitor) and/or 5 µM Ko143 (ABCG2/Abcg2 inhibitor) in both compartments (when appropriate) for 1 h, the transport phase was initiated (t = 0) by replacing the medium in apical and basolateral compartments with fresh DMEM with 10% FBS and the appropriate inhibitor(s), and repotrectinib at 5 µM in the donor compartment. […] The active transport ratio r, calculated by dividing the amount of apically directed drug transport by basolaterally directed drug translocation after 8 h, was used to assess active transport of repotrectinib.

[1] = 2-h oral plasma pharmacokinetics and tissue distribution, male wild-type and Oatp1a/1b−/− mice; format: in vivo; settings: 10 mg/kg oral; for concentration at 2 h / Cmax / AUC(0-t) / Tmax / Kp at 2 h: mouse; for Cmax / AUC(0-t) / Tmax: plasma; for AUC(0-t): read-out: AUC0–2h; for Tmax: median (range); for Fold change (SIWC % of dose) / Fold change ratio (SIWC (%)-to-AUC0–2h) / Fold change ratio (SIWC (%)-to-plasma) / Fold change ratio (liver-to-plasma) / Fold increase CSIWC / Fold increase Cliver / Fold increase AUC0–2h: vs wild-type; for Kp at 2 h: male, po, read-out: Liver-to-plasma ratio
Excerpt: (§1) Mice with similar average ages (and body weights) were randomly allocated in experimental groups as far as possible. Mice were maintained in a temperature-controlled and specific pathogen-free environment with a 12-h light and 12-h dark cycle and they received a standard diet (Transbreed, SDS Diets, Technilab-BMI, Someren, The Netherlands) and acidified water ad libitum. […] Given the objective main readout (repotrectinib plasma and tissue concentrations as measured by LC-MS/MS), no blinding method was applied.
Repotrectinib was dissolved in dimethyl sulfoxide (DMSO) at a concentration of 50 mg/mL. This stock solution was first diluted 3-fold with ethanol/polysorbate 80 (1/1; v/v), followed by further dilution with a 10 mM hydrochloric acid solution, yielding a dosing solution of 1 mg/mL, freshly prepared on the day of experiment. Final concentrations of the solvents in the administration solution were: 2%, 2%, 2%, and 94% (all v/v) for DMSO, ethanol, polysorbate 80, and 10 mM hydrochloric acid solution, respectively.
To minimize variation in absorption upon oral administration, mice were fasted for 2–3 h before repotrectinib (10 mg/kg body weight) was administered by gavage into the stomach at 10 µL/g body weight, with a blunt-ended needle. Tail vein serial blood samples were collected at 0.125, 0.25, 0.5, 1, 2 and 4 h using heparinized capillary tubes (Sarstedt, Nümbrecht, Germany) for the 8-h experiments. For the 4- and 2-h experiments, blood samplings were performed from the tail vein with the same schedule, but terminated at 2 and 1 h, respectively. Eight, four, or two hours after oral administration, mice were deeply anesthetized with 2–3% isoflurane, followed by cardiac puncture to collect blood in Eppendorf tubes containing heparin as an anticoagulant. Brain, liver, spleen, kidney, lung, small intestine, and testis were rapidly collected after sacrificing the mice by cervical dislocation. The small intestinal contents (SIC) were separated from small intestinal tissue (SI), which was flushed and rinsed with cold saline to remove any residual feces. Brain, liver, spleen, kidney, lung, SI, SIC, and testis were homogenized with 1, 3, 1, 2, 1, 3, 2, and 1 mL of 2% BSA (w/v), respectively. Plasma fraction was isolated from blood by centrifugation at 9000× g for 6 min at 4 °C. All samples were stored at −30 °C until analysis.
(§2) A sensitive and specific liquid chromatography-tandem mass spectrometry method using protein precipitation pre-treatment was adopted to quantify the concentration of repotrectinib in DMEM medium, plasma samples and tissue homogenates.
A non-compartmental model using the PKSolver add-in program for Microsoft Excel was adopted to calculate the pharmacokinetic parameters of repotrectinib. Oral availability was assessed by the plasma area under the curve (AUC), calculated using repotrectinib plasma concentration-time curves with the linear trapezoidal rule without extrapolating the infinity. Statistical testing was performed in Graphpad Prism7 (Graphpad Software, La Jolla, CA, USA). All data are presented as geometric means ± SD. Heteroscedastic data were log-transformed before applying statistical analysis. When differences between two groups were compared, the two-sided unpaired Student’s t test was used. One-way analysis of variance (ANOVA) was applied when multiple groups were compared, and the Bonferroni post hoc correction was used to accommodate multiple testing. Differences were considered statistically significant when P < 0.05.

[2] = Oral plasma pharmacokinetics compared across experiments and mouse strains; format: in vivo, mice
Excerpt: as §1
Repotrectinib was dissolved in dimethyl sulfoxide (DMSO) at a concentration of 50 mg/mL. […]
as §2
A non-compartmental model using the PKSolver add-in program for Microsoft Excel was adopted to calculate the pharmacokinetic parameters of repotrectinib. Oral availability was assessed by the plasma area under the curve (AUC), calculated using repotrectinib plasma concentration-time curves with the linear trapezoidal rule without extrapolating the infinity. […]

[3] = Oatp1a/1b−/− (>99% FVB background), male Oatp1a/1b−/− mice
[4] = male Oatp1a/1b−/− mice vs wild-type
[5] = wild-type (>99% FVB background), male wild-type mice

C[C@H]1CNC(=O)c2cnn3ccc(nc23)N[C@H](C)c2cc(F)ccc2O1 [repotrectinib]
efflux ratio at 8 h, 5 µM (mouse Abcg2; pH 7.4, with zosuquidar 5 µM + Ko143 5 µM, + zosuquidar 5 µM + Ko143 5 µM): 1.1 | efflux ratio at 8 h, 5 µM (mouse Abcg2; pH 7.4, with zosuquidar 5 µM, + zosuquidar 5 µM): 40 | concentration at 2 h ([1]; FVB, small intestine with content, male wild-type mice, read-out: CSIWC): 84700 ± 24100 ng/g | concentration at 2 h ([1]; Oatp1a/1b−/− (>99% FVB background), liver, male Oatp1a/1b−/− mice, read-out: Cliver): 15300 ± 1600 ng/g | Cmax [1, 3]: 5380 ± 520 ng/mL | AUC(0-t) [1, 3]: 8960 ± 770 ng·h/mL | Tmax [1, 3]: 30 min | concentration at 2 h ([1]; Oatp1a/1b−/− (>99% FVB background), small intestine with content, male Oatp1a/1b−/− mice, read-out: CSIWC): 121000 ± 29200 ng/g | liver-to-plasma ratio, fold reduction [1, 4]: 2.3 fold | relative intestinal (SIWC) recovery corrected for plasma concentration, fold decrease [1, 4]: 2.8 fold | relative intestinal (SIWC) recovery corrected for plasma exposure (AUC0–2h), fold decrease [1, 4]: 1.9 fold | SIWC (% of dose) ([1]; male Oatp1a/1b−/− mice): 21.3 ± 3.7 % of dose | SIWC (%)-to-AUC0–2h ratio ([1]; male Oatp1a/1b−/− mice): 2.40 ± 0.54 *** ·10^−3 | SIWC (%)-to-plasma ratio ([1]; male Oatp1a/1b−/− mice): 5.58 ± 1.09 *** ·10^−3 | Fold change (SIWC % of dose) ([1]; male Oatp1a/1b−/− mice): 1.22 | Fold change ratio (SIWC (%)-to-AUC0–2h) ([1]; male Oatp1a/1b−/− mice): 0.52 | Fold change ratio (SIWC (%)-to-plasma) ([1]; male Oatp1a/1b−/− mice): 0.35 | Fold change ratio (liver-to-plasma) ([1]; male Oatp1a/1b−/− mice): 0.44 | Fold increase CSIWC ([1]; male Oatp1a/1b−/− mice): 1.43 | Fold increase Cliver ([1]; male Oatp1a/1b−/− mice): 1.55 | Fold increase AUC0–2h ([1]; male Oatp1a/1b−/− mice, 10 mg/kg): 2.3 and 2.29 | SIWC (% of dose) ([1]; male wild-type mice): 17.4 ± 5.6 % of dose | SIWC (%)-to-AUC0–2h ratio ([1]; male wild-type mice): 4.59 ± 1.04 ·10^−3 | SIWC (%)-to-plasma ratio ([1]; male wild-type mice): 15.8 ± 3.9 ·10^−3 | Fold change (SIWC % of dose) ([1]; male wild-type mice): 1.00 | Fold change ratio (SIWC (%)-to-AUC0–2h) ([1]; male wild-type mice): 1.00 | Fold change ratio (SIWC (%)-to-plasma) ([1]; male wild-type mice): 1.00 | Fold change ratio (liver-to-plasma) ([1]; male wild-type mice): 1.00 | Fold increase AUC0–2h ([1]; male wild-type mice): 1.00 | Fold increase CSIWC ([1]; male wild-type mice): 1.00 | Fold increase Cliver ([1]; male wild-type mice): 1.00 | Kp at 2 h ([1]; FVB, liver, 10 mg/kg, male Oatp1a/1b−/− mice): 4 ± 0.54 | Kp at 2 h ([1]; FVB, liver, 10 mg/kg, male wild-type mice): 9.16 ± 1.53 | concentration at 2 h ([1]; wild-type (>99% FVB background), liver, male wild-type mice, read-out: Cliver): 9840 ± 1160 ng/g | Cmax [1, 5]: 2640 ± 990 ng/mL | AUC(0-t) [1, 5]: 3920 ± 1290 ng·h/mL | Tmax [1, 5]: 30 min | Tmax ([2]; plasma, 10 mg/kg, all tested mouse strains, oral administration): ~30 min | plasma levels, female relative to male mice ([2]; same oral dose 10 mg/kg, Figure 3 vs Figure S1): about 1.6 fold

— publication PMC8619046, “ABCB1 and ABCG2 Control Brain Accumulation and Intestinal Disposition of the Novel ROS1/TRK/ALK Inhibitor Repotrectinib, While OATP1A/1B, ABCG2, and CYP3A Limit Its Oral Availability” (Pharmaceutics, 2021)
